{"source": "patent US20230309562A1", "about": "(priority 2020, published 2023)", "key": {"infectious microorganism": {"test_system": "infectious microorganism", "settings": "cited from earlier work"}, "SARS COVID-19": {"test_system": "SARS COVID-19", "format": "cell-based", "settings": "for TCID 50% viral kill: 5-minute exposure"}, "Influenza A": {"test_system": "Influenza A", "format": "cell-based"}, "Ebola virus": {"test_system": "Ebola virus", "settings": "exposure times of at least several minutes required, cited from earlier work"}}, "note": "Read-outs that look alike come from different tables or passages of the source."}
{"smiles": "OCl", "note": "[HOCl, hypochlorous acid]", "values": [{"measurement": "growth inhibition", "setting": "infectious microorganism; 2.6 ppm, in 5 minutes", "value": 100, "unit": "%"}, {"measurement": "LD50", "setting": "infectious microorganism; reported", "value": "0.0104-0.156 ppm"}, {"measurement": "TCID 50% viral kill", "setting": "SARS COVID-19; 1 ppm", "value": "viral kill positive"}, {"measurement": "TCID 50% viral kill", "setting": "SARS COVID-19; 2.5 ppm", "value": "viral kill positive"}, {"measurement": "TCID 50% viral kill", "setting": "SARS COVID-19; 10 ppm", "value": "viral kill positive"}, {"measurement": "TCID 50% viral kill", "setting": "SARS COVID-19; 25 ppm", "value": "viral kill positive"}, {"measurement": "virus kill by HOCl treatment", "setting": "SARS COVID-19; concentrations of between 1 ppm and 25 ppm", "value": "killed"}, {"measurement": "TCID 50% viral kill", "setting": "Influenza A", "value": "viral kill positive"}, {"measurement": "virus kill by HOCl treatment", "setting": "Influenza A", "value": "killed"}]}
{"smiles": "OCl", "note": "[sodium hypochlorite, Sodium hypochlorite]", "values": [{"measurement": "destruction of Ebola virus", "setting": "Ebola virus; 0.5% solution", "value": "effectively destroy"}, {"measurement": "destruction of Ebola virus", "setting": "Ebola virus; 1% solution", "value": "effectively destroy"}]}
